From paper PMC5428567, “Pentameric ligand-gated ion channels exhibit distinct transmembrane domain archetypes for folding/expression and function” (Scientific Reports, 2017)

Columns and labels:
ELIC I319A = test system: ELIC I319A; design: method as in Henault et al.[9], [18], [29]; settings: Xenopus laevis oocytes; ±SD; n=11; ref Henault et al.[9], [18], [29]; cited from earlier work
ELIC P304A = target: T1, ELIC P304A (Dickeya chrysanthemi, UniProt P0C7B7, P304A); assay: TEVC cysteamine-induced current, ELIC P304A; assay type: cell-based; settings: Xenopus laevis oocytes; EC50 values were not obtained
T1 construct: expressed in transfected cells; host or cells: Xenopus laevis oocytes injected with cRNA (pTLN plasmid)
T1 sequence (P0C7B7 whole entry P304A): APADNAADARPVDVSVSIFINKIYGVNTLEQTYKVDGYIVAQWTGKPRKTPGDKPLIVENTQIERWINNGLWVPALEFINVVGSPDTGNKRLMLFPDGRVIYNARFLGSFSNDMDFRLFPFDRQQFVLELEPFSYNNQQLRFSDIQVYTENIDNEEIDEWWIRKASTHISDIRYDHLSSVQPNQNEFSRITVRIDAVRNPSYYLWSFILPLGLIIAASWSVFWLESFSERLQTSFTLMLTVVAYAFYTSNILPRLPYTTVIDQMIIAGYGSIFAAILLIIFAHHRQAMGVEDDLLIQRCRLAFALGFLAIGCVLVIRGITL
From the text: (§1) To examine how different physical interactions at the M4-M1/M3 interface in both GLIC and ELIC (Fig. 1) influence function, we mutated each residue to Ala, and characterized how each mutation influenced agonist-induced channel gating using two-electrode voltage clamp electrophysiology. Both GLIC and ELIC are cation-selective ion channels that transiently gate open in response to agonist binding, although GLIC responds to protons while ELIC responds to primary amines, such as cysteamine, [34].
(§2) Stage V–VI oocytes were collected as previously described, injected with cRNA, and allowed to incubate one to four days at 16 °C in ND96 + buffer (5 mM HEPES, 96 mM NaCl, 2 mM KCl, 1 mM MgCl2, 1 mM CaCl2, and 2 mM Pyruvate). Whole cell currents were recorded using a two-electrode voltage clamp apparatus (OC-725C oocyte clamp; Holliston, MA). For GLIC, whole cell currents were recorded from injected oocytes (3–20 ng cRNA) immersed in MES buffer (140 mM NaCl, 2.8 mM KCl, 2 mM MgCl2, and 10 mM MES). Currents through the plasma membrane in response to pH jumps (pH 7.3 down to the indicated pH values) were measured with the transmembrane voltage clamped at voltages between −20 mV and −40 mV depending on the level of expression, typically −20 mV. […]

ELIC L314A = test system: ELIC L314A; design: method as in Henault et al.[9], [18], [29]; settings: Xenopus laevis oocytes; ±SD; n=8; ref Henault et al.[9], [18], [29]; cited from earlier work
ELIC S271A = target: T2, ELIC S271A (Dickeya chrysanthemi, UniProt P0C7B7, S271A); assay: TEVC cysteamine-induced current, ELIC S271A; assay type: cell-based; settings: Xenopus laevis oocytes; ±SD; n=8
T2 construct: expressed in transfected cells; host or cells: Xenopus laevis oocytes injected with cRNA
T2 sequence (P0C7B7 whole entry S271A): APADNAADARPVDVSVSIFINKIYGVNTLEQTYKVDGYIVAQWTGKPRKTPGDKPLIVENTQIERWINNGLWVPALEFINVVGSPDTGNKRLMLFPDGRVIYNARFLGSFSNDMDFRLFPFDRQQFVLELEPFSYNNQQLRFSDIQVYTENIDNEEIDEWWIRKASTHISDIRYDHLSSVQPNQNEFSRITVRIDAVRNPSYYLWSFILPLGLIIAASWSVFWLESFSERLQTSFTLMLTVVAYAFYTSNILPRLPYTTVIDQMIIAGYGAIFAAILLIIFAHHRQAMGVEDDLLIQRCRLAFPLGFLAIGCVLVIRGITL
From the text: as §1, §2

ELIC F222A + C299A = target: T3, ELIC F222A + C299A (Dickeya chrysanthemi, UniProt P0C7B7, C299A/F222A); assay: TEVC cysteamine-induced current, ELIC F222A + C299A; assay type: cell-based; settings: Xenopus laevis oocytes; ±SD; n=8
T3 construct: expressed in transfected cells; host or cells: Xenopus laevis oocytes injected with cRNA (pTLN plasmid)
T3 sequence (P0C7B7 whole entry F222A/C299A): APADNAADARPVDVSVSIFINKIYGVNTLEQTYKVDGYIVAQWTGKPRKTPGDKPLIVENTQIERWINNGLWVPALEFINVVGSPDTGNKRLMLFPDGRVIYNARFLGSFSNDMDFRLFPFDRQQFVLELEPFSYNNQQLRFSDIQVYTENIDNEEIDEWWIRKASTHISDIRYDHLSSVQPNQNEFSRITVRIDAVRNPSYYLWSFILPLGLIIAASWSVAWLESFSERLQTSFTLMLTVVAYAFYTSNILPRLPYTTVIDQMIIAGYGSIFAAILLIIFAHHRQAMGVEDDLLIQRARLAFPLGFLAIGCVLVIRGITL
From the text: as §1, §2

ELIC W219A = target: T4, ELIC W219A (Dickeya chrysanthemi, UniProt P0C7B7, W219A); assay: TEVC cysteamine-induced current, ELIC W219A; assay type: cell-based; settings: Xenopus laevis oocytes; ±SD; n=8
T4 construct: expressed in transfected cells; host or cells: Xenopus laevis oocytes injected with cRNA
T4 sequence (P0C7B7 whole entry W219A): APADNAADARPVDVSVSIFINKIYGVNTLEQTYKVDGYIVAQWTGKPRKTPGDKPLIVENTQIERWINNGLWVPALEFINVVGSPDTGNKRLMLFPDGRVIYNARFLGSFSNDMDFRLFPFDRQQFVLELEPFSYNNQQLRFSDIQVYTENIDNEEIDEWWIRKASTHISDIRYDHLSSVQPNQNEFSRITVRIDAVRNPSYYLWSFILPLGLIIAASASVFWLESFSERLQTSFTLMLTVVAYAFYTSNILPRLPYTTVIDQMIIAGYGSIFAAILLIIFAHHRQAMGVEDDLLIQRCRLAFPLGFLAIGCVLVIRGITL
From the text: as §1, §2

ELIC W223A + R300A = target: T5, ELIC W223A + R300A (Dickeya chrysanthemi, UniProt P0C7B7, R300A/W223A); assay: TEVC cysteamine-induced current, ELIC W223A + R300A; assay type: cell-based; settings: Xenopus laevis oocytes; ±SD; n=8
T5 construct: expressed in transfected cells; host or cells: Xenopus laevis oocytes injected with cRNA (pTLN plasmid)
T5 sequence (P0C7B7 whole entry W223A/R300A): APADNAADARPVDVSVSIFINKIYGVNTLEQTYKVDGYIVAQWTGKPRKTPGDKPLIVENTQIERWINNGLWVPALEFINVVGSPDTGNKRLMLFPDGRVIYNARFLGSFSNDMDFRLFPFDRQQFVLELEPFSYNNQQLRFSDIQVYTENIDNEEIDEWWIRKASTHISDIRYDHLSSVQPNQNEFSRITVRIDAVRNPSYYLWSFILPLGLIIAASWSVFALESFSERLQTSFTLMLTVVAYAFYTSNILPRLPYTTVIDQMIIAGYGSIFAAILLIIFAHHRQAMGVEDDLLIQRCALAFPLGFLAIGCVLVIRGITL
From the text: as §1, §2

ELIC M264A = target: T6, ELIC M264A (Dickeya chrysanthemi, UniProt P0C7B7, M264A); assay: TEVC cysteamine-induced current, ELIC M264A; assay type: cell-based; settings: Xenopus laevis oocytes; ±SD; n=8
T6 construct: expressed in transfected cells; host or cells: Xenopus laevis oocytes injected with cRNA
T6 sequence (P0C7B7 whole entry M264A): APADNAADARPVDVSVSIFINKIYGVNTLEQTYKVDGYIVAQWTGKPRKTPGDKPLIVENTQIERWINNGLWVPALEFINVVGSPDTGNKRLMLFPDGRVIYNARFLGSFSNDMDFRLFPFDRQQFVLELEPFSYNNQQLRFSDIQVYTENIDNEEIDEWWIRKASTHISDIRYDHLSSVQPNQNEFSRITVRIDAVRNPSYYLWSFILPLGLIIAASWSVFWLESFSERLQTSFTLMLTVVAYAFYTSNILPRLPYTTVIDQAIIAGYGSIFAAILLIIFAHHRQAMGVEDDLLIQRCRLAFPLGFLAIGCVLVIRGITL
From the text: as §1, §2

ELIC R300A = test system: ELIC R300A; design: method as in Henault et al.[9], [18], [29]; settings: Xenopus laevis oocytes; ±SD; n=11; ref Henault et al.[9], [18], [29]; cited from earlier work
ELIC W223A = target: T7, ELIC W223A (Dickeya chrysanthemi, UniProt P0C7B7, W223A); assay: TEVC cysteamine-induced current, ELIC W223A; assay type: cell-based; settings: Xenopus laevis oocytes; ±SD; n=8
T7 construct: expressed in transfected cells; host or cells: Xenopus laevis oocytes injected with cRNA
T7 sequence (P0C7B7 whole entry W223A): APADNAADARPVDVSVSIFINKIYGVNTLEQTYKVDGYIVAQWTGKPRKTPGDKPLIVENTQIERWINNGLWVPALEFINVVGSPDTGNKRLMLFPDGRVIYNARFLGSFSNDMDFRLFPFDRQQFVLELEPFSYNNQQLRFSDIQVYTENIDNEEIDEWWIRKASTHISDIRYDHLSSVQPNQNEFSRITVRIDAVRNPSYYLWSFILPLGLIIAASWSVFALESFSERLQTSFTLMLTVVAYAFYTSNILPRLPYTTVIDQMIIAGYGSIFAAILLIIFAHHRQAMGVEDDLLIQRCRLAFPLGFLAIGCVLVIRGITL
From the text: as §1, §2

ELIC V260A = target: T8, ELIC V260A (Dickeya chrysanthemi, UniProt P0C7B7, V260A); assay: TEVC cysteamine-induced current, ELIC V260A; assay type: cell-based; settings: Xenopus laevis oocytes; ±SD; n=8
T8 construct: expressed in transfected cells; host or cells: Xenopus laevis oocytes injected with cRNA
T8 sequence (P0C7B7 whole entry V260A): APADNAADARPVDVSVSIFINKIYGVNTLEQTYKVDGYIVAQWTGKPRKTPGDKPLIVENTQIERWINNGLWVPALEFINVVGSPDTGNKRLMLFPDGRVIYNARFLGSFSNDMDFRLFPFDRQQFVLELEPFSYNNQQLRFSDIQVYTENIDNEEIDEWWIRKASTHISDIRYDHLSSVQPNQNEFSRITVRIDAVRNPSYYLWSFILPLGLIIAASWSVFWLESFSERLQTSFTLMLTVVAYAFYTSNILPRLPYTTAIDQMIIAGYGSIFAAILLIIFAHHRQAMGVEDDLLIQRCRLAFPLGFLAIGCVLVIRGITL
From the text: as §1, §2

ELIC F303A = test system: ELIC F303A; design: method as in Henault et al.[9], [18], [29]; settings: Xenopus laevis oocytes; ±SD; n=10; ref Henault et al.[9], [18], [29]; cited from earlier work
ELIC S271A + F307A = target: T9, ELIC S271A + F307A (Dickeya chrysanthemi, UniProt P0C7B7, F307A/S271A); assay: TEVC cysteamine-induced current, ELIC S271A + F307A; assay type: cell-based; settings: Xenopus laevis oocytes; ±SD; n=8
T9 construct: expressed in transfected cells; host or cells: Xenopus laevis oocytes injected with cRNA (pTLN plasmid)
T9 sequence (P0C7B7 whole entry S271A/F307A): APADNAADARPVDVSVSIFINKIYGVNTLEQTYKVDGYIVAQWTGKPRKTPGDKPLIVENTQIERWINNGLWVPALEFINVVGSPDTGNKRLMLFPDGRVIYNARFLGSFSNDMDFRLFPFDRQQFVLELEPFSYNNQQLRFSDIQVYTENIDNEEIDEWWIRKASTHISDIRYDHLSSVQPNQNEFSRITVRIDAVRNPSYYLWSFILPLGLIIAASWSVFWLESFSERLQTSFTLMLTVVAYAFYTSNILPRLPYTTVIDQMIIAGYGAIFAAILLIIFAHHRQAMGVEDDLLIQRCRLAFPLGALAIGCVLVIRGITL
From the text: as §1, §2

ELIC G311A = test system: ELIC G311A; design: method as in Henault et al.[9], [18], [29]; settings: Xenopus laevis oocytes; ±SD; n=11; ref Henault et al.[9], [18], [29]; cited from earlier work
ELIC S271A + F303A = target: T10, ELIC S271A + F303A (Dickeya chrysanthemi, UniProt P0C7B7, F303A/S271A); assay: TEVC cysteamine-induced current, ELIC S271A + F303A; assay type: cell-based; settings: Xenopus laevis oocytes; ±SD; n=8
T10 construct: expressed in transfected cells; host or cells: Xenopus laevis oocytes injected with cRNA (pTLN plasmid)
T10 sequence (P0C7B7 whole entry S271A/F303A): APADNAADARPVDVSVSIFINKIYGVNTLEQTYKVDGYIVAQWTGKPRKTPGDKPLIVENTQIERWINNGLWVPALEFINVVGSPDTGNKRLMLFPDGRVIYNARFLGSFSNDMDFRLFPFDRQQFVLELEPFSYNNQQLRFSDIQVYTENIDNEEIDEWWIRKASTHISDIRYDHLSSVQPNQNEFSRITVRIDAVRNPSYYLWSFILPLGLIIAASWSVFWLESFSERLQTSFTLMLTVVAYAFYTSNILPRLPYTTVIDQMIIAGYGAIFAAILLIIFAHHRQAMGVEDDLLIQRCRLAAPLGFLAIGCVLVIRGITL
From the text: as §1, §2

ELIC F222A = target: T11, ELIC F222A (Dickeya chrysanthemi, UniProt P0C7B7, F222A); assay: TEVC cysteamine-induced current, ELIC F222A; assay type: cell-based; settings: Xenopus laevis oocytes
T11 construct: expressed in transfected cells; host or cells: Xenopus laevis oocytes injected with cRNA
T11 sequence (P0C7B7 whole entry F222A): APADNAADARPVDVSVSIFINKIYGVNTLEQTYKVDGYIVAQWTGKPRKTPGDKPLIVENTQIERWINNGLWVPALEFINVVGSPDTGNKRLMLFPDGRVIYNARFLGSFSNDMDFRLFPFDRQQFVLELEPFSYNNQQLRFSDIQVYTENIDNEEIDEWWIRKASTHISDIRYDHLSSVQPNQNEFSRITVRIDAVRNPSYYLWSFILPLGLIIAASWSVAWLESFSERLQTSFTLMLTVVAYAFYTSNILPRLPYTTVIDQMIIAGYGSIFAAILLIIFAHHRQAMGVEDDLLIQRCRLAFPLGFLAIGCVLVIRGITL
From the text: as §1
Stage V–VI oocytes were collected as previously described, injected with cRNA, and allowed to incubate one to four days at 16 °C in ND96 + buffer (5 mM HEPES, 96 mM NaCl, 2 mM KCl, 1 mM MgCl2, 1 mM CaCl2, and 2 mM Pyruvate). Whole cell currents were recorded using a two-electrode voltage clamp apparatus (OC-725C oocyte clamp; Holliston, MA). For GLIC, whole cell currents were recorded from injected oocytes (3–20 ng cRNA) immersed in MES buffer (140 mM NaCl, 2.8 mM KCl, 2 mM MgCl2, and 10 mM MES). Currents through the plasma membrane in response to pH jumps (pH 7.3 down to the indicated pH values) were measured with the transmembrane voltage clamped at voltages between −20 mV and −40 mV depending on the level of expression, typically −20 mV. For ELIC, whole cell currents were recorded from injected oocytes (0.1–10 ng cRNA) immersed in HEPES buffer (150 mM NaCl, 0.5 mM BaCl2, and 10 mM HEPES, pH 7.0). In most cases, currents through the plasma membrane in response to cysteamine concentration jumps (from 0 mM up to the indicated values) were measured with the transmembrane voltage clamped at −30 mV.
Dose responses for each mutant were acquired from at least two different batches of oocytes. Each individual dose-response experiment was fit with a variable slope sigmoidal dose-response and the individual EC50 values from each experiment averaged to give the reported EC50 values ± standard deviation.

ELIC G318A = test system: ELIC G318A; design: method as in Henault et al.[9], [18], [29]; settings: Xenopus laevis oocytes; ±SD; n=10; ref Henault et al.[9], [18], [29]; cited from earlier work
ELIC G270A = target: T12, ELIC G270A (Dickeya chrysanthemi, UniProt P0C7B7, G270A); assay: TEVC cysteamine-induced current, ELIC G270A; assay type: cell-based; settings: Xenopus laevis oocytes; ±SD; n=8
T12 construct: expressed in transfected cells; host or cells: Xenopus laevis oocytes injected with cRNA (pTLN plasmid)
T12 sequence (P0C7B7 whole entry G270A): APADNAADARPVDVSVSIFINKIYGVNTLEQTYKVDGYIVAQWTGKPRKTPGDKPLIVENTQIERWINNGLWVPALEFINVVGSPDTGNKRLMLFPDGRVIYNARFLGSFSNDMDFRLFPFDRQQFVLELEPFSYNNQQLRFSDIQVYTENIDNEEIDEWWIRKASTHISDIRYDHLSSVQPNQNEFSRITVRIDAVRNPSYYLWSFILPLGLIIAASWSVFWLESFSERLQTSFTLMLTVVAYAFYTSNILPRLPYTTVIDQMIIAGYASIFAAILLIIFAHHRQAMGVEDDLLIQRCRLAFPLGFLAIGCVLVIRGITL
From the text: as §1, §2

In the case of `NCCS` [cysteamine], the “−logEC50” value (ELIC I319A) is given as 3.06 ± 0.08, the desensitization kinetics (ELIC P304A) is given as “substantially altered desensitization kinetics” and the EC50 (ELIC L314A) is given as 420 ± 50 µM. For the same compound, the “−logEC50” value (ELIC L314A) was 3.38 ± 0.05, the EC50 (ELIC S271A) was 820 ± 50 µM and the “−logEC50” value (ELIC S271A) was 3.09 ± 0.03. The EC50 (ELIC F222A + C299A) was 100 ± 20 µM, the “−logEC50” value (ELIC F222A + C299A) was 4.00 ± 0.09 and the EC50 (ELIC W219A) was 910 ± 50 µM. For the same compound, the “−logEC50” value (ELIC W219A) was 3.04 ± 0.02, the EC50 (ELIC W223A + R300A) was 800 ± 110 µM and the “−logEC50” value (ELIC W223A + R300A) was 3.10 ± 0.05. For the same compound, the EC50 (ELIC M264A) was 1290 ± 120 µM, the “−logEC50” value (ELIC M264A) was 2.89 ± 0.04 and the EC50 (ELIC R300A) was 400 ± 50 µM. The “−logEC50” value (ELIC R300A) was 3.40 ± 0.05, the EC50 (ELIC W223A) was 1230 ± 60 µM and the “−logEC50” value (ELIC W223A) was 2.91 ± 0.02. For the same compound, the EC50 (ELIC V260A) was 460 ± 50 µM, the “−logEC50” value (ELIC V260A) was 3.34 ± 0.05 and the EC50 (ELIC F303A) was 190 ± 70 µM. The “−logEC50” value (ELIC F303A) was 3.73 ± 0.17, the EC50 (ELIC S271A + F307A) was 770 ± 90 µM and the “−logEC50” value (ELIC S271A + F307A) was 3.11 ± 0.05. For the same compound, the EC50 (ELIC G311A) was 510 ± 100 µM, the “−logEC50” value (ELIC G311A) was 3.29 ± 0.09 and the EC50 (ELIC S271A + F303A) was 620 ± 130 µM. The “−logEC50” value (ELIC S271A + F303A) was 3.21 ± 0.09, the “gain-of-function relative to WT ELIC” value (ELIC F222A; shift versus WT) was 10 fold and the EC50 (ELIC F222A; ±SD, n=8) was 90 ± 30 µM. The “−logEC50” value (ELIC F222A; ±SD, n=8) was 4.05 ± 0.15, the EC50 (ELIC G318A) was 760 ± 130 µM and the “−logEC50” value (ELIC G318A) was 3.12 ± 0.08. The EC50 (ELIC G270A) was 1020 ± 100 µM and the “−logEC50” value (ELIC G270A) was 2.99 ± 0.04.
